EC50 data for 30 compounds are collected here from patent publication US11964973B2 (priority 2019, dated 2024).

For one test, the system named is Human venous whole blood (IFN-γ). Kind of test: Human whole blood IFN-γ assay. It is filed as cell-based. Particulars: Homo sapiens, 24 h, human whole blood, anti-CD3 plus anti-CD28, 24 hours; read-out: INFg Whole Blood Normalized Agonist EC50. How it is done:
Assay 10: Human Whole Blood IFN-γ Assay
Human venous whole blood (22.5 μL per well), obtained from healthy donors, was pre-treated with compounds for one hour at 37° C. in a humidified 95% air/5% CO2 incubator. The blood was stimulated with 2.5 μL anti-human CD3 and anti-CD28 mAb at a final concentration of 1 μg/mL each for 24 hours at 37° C. IFN-γ in the supernatants was measured using AlphLISA kit (Cat #AL217).
For `C[C@@H]1CN(c2cc(=O)n(C)c3ccc(C#N)nc23)CC[C@H]1Oc1ccc(OC(F)(F)F)cc1` (racemic) [Example 79, (+/−) 6-cyano-1-methyl-4-(trans-3-methyl-4-(4-(trifluoromethoxy)phenoxy)piperidin-1-yl)-1,5-naphthyridin-2(1H)-one], the EC50 is 2.2 µM.

As to `C[C@@H]1CN(c2cc(=O)n(C)c3ccc(C#N)nc23)CC[C@H]1Oc1ccc(C2CCCCC2)cc1` (racemic) [Example 106, 8-((3R,4R)-4-(4-cyclohexylphenoxy)-3-methylpiperidin-1-yl)-5-methyl-6-oxo-5,6-dihydro-1,5-naphthyridine-2-carbonitrile], the EC50 came to 2.2 µM.

`CCc1ccc(O[C@@H]2CCN(c3cc(=O)n(C)c4ccc(C#N)nc34)C[C@H]2C)cc1` (racemic) [Example 110, 8-((3R,4R)-4-(4-ethylphenoxy)-3-methylpiperidin-1-yl)-5-methyl-6-oxo-5,6-dihydro-1,5-naphthyridine-2-carbonitrile]: the EC50 came to 3 µM.

As for `C[C@@H]1CN(c2cc(=O)n(C)c3ccc(C#N)nc23)CC[C@H]1Oc1ccc(C2CC2)cc1` (racemic) [Example 111, 8-((3R,4R)-4-(4-cyclopropylphenoxy)-3-methylpiperidin-1-yl)-5-methyl-6-oxo-5,6-dihydro-1,5-naphthyridine-2-carbonitrile], the EC50 was determined as 3.3 µM.

Consider `C[C@@H]1CN(c2cc(=O)n(C)c3ccc(C#N)nc23)CC[C@H]1Oc1ccc(F)cc1F` (racemic) [Example 113, 8-((3R,4R)-4-(2,4-difluorophenoxy)-3-methylpiperidin-1-yl)-5-methyl-6-oxo-5,6-dihydro-1,5-naphthyridine-2-carbonitrile], for which the EC50 was determined as 4.1 µM.

On to `C[C@@H]1CN(c2cc(=O)n(C)c3ccc(C#N)nc23)CC[C@H]1Oc1c(F)cccc1C(F)(F)F` (racemic) [Example 124, 8-((3R,4R)-4-(2-fluoro-6-(trifluoromethyl)phenoxy)-3-methylpiperidin-1-yl)-5-methyl-6-oxo-5,6-dihydro-1,5-naphthyridine-2-carbonitrile], for which the EC50 turned out to be 20 µM.

Take `CC[C@@H]1CN(c2cc(=O)n(C)c3ccc(C#N)nc23)CC[C@H]1Oc1ccc(C(C)C)cc1` (racemic) [Example 143, 8-((3R,4R)-3-ethyl-4-(4-isopropylphenoxy)piperidin-1-yl)-5-methyl-6-oxo-5,6-dihydro-1,5-naphthyridine-2-carbonitrile]: the EC50 came to 2.2 µM.

On to `CC[C@@H]1CN(c2cc(=O)n(C)c3ccc(C#N)nc23)CC[C@H]1Oc1ccc(C(F)(F)F)cc1` (racemic) [Example 146, 8-((3R,4R)-3-ethyl-4-(4-(trifluoromethyl)phenoxy)piperidin-1-yl)-5-methyl-6-oxo-5,6-dihydro-1,5-naphthyridine-2-carbonitrile], for which the EC50 was 1.7 µM.

As for `CC[C@@H]1CN(c2cc(=O)n(C)c3ccc(C#N)nc23)CC[C@H]1Oc1ccc(C(C)(C)CC)cc1` (racemic) [Example 149, 8-((3R,4R)-3-ethyl-4-(4-(tert-pentyl)phenoxy)piperidin-1-yl)-5-methyl-6-oxo-5,6-dihydro-1,5-naphthyridine-2-carbonitrile], the EC50 is 1.4 µM.

`CC[C@@H]1CN(c2cc(=O)n(C)c3ccc(C#N)nc23)CC[C@H]1Oc1ccc(C(C)(C)C)cc1` (racemic) [Example 152, 8-((3R,4R)-4-(4-(tert-butyl)phenoxy)-3-ethylpiperidin-1-yl)-5-methyl-6-oxo-5,6-dihydro-1,5-naphthyridine-2-carbonitrile]: the EC50 is 1.5 µM.

Take `CC[C@@H]1CN(c2cc(=O)n(C)c3ccc(C#N)nc23)CC[C@H]1Oc1cccc(C2CC2)c1` (racemic) [Example 155, 8-((3R,4R)-4-(3-cyclopropylphenoxy)-3-ethylpiperidin-1-yl)-5-methyl-6-oxo-5,6-dihydro-1,5-naphthyridine-2-carbonitrile]: the EC50 turned out to be 20 µM.

Regarding `C[C@@H]1CN(c2cc(=O)n(C)c3ccc(C#N)nc23)CC[C@H]1Oc1ccc(OC(F)(F)F)cc1` (single isomer, unassigned) [Example 80, 6-cyano-1-methyl-4-(trans-3-methyl-4-(4-(trifluoromethoxy)phenoxy)piperidin-1-yl)-1,5-naphthyridin-2(1H)-one (rel)], the EC50 is 2.4 µM.

For the compound `C[C@@H]1CN(c2cc(=O)n(C)c3ccc(C#N)nc23)CC[C@H]1Oc1ccc(C(C)(C)C)cc1` (single isomer, unassigned) [Example 90], the EC50 was 5.6 µM.

Take `C[C@@H]1CN(c2cc(=O)n(C)c3ccc(C#N)nc23)CC[C@H]1Oc1c(F)cccc1F` (single isomer, unassigned) [Example 126]: the EC50 was determined as 20 µM.

The same test, now with this note: Homo sapiens, human whole blood IFN-γ; read-out: INFg Whole Blood.
Consider `CC(C)Oc1ccc(O[C@@H]2CCN(c3cc(=O)n(C)c4ccc(C#N)nc34)C[C@H]2C)nc1` (mixture of isomers) [Example 199, 8-((3R,4R)-4-((5-isopropoxypyridin-2-yl)oxy)-3-methylpiperidin-1-yl)-5-methyl-6-oxo-5,6-dihydro-1,5-naphthyridine-2-carbonitrile], for which the EC50 was determined as 2.1 µM.

Turning to `C[C@@H]1CN(c2cc(=O)n(C)c3ccc(C#N)nc23)CC[C@@H]1Oc1ccc(C(F)(F)F)cc1` (racemic) [Example 186, (+/−) 5-methyl-8-(cis-3-methyl-4-(4-(trifluoromethyl)phenoxy)piperidin-1-yl)-6-oxo-5,6-dihydro-1,5-naphthyridine-2-carbonitrile], the EC50 stood at 1.6 µM.

For `CC(C)Oc1ccc(OC2CCN(c3cc(=O)n(C)c4ccc(C#N)nc34)CC2(C)C)nc1` (racemic) [Example 232, (+/−) 8-(4-((5-isopropoxypyridin-2-yl)oxy)-3,3-dimethylpiperidin-1-yl)-5-methyl-6-oxo-5,6-dihydro-1,5-naphthyridine-2-carbonitrile], the EC50 is 7 µM.

As for `C[C@@H]1CN(c2cc(=O)n(C)c3ccc(C#N)nc23)CC[C@@H]1OCc1ccc(OC(F)(F)F)cc1` (racemic) [Example 235, (+/−) 5-methyl-8-(cis-3-methyl-4-((4-(trifluoromethoxy)benzyl)oxy)piperidin-1-yl)-6-oxo-5,6-dihydro-1,5-naphthyridine-2-carbonitrile], the EC50 stood at 5.2 µM.

On to `C[C@@H]1CN(c2cc(=O)n(C)c3ccc(C(N)=O)nc23)CC[C@@H]1OCc1ccc(OC(F)(F)F)cc1` (racemic) [Example 236, (+/−) 5-methyl-8-(cis-3-methyl-4-((4-(trifluoromethoxy)benzyl)oxy)piperidin-1-yl)-6-oxo-5,6-dihydro-1,5-naphthyridine-2-carboxamide], for which the EC50 turned out to be 20 µM.

Still in this test, the particulars now being: human whole blood IFN-γ; read-out: INFg Whole Blood.
As to `CO[C@@H]1CN(c2cc(=O)n(C)c3ccc(C#N)nc23)CC[C@H]1Oc1cccc(C(F)(F)F)c1` (racemic) [Example 261, (±)-trans-8-(3-methoxy-4-(3-(trifluoromethyl)phenoxy)piperidin-1-yl)-5-methyl-6-oxo-5,6-dihydro-1,5-naphthyridine-2-carbonitrile], the EC50 was determined as 0.91 µM.

Consider `CO[C@@H]1CN(c2cc(=O)n(C)c3ccc(C#N)nc23)CC[C@H]1Oc1cccc(C(F)(F)F)c1` (racemic) [Example 262, (±)-trans-8-(3-methoxy-4-(3-(trifluoromethyl)phenoxy)piperidin-1-yl)-5-methyl-6-oxo-5,6-dihydro-1,5-naphthyridine-2-carbonitrile], for which the EC50 was determined as 12 µM.

Regarding `CC(C)Oc1ccc(O[C@H]2CCN(c3cc(=O)n(C)c4ccc(C#N)nc34)C[C@@H]2O)nc1` (racemic) [Example 268, (±)-trans-8-(3-hydroxy-4-((5-isopropoxypyridin-2-yl)oxy)piperidin-1-yl)-5-methyl-6-oxo-5,6-dihydro-1,5-naphthyridine-2-carbonitrile], the EC50 was found to be 13 µM.

With `CO[C@H]1CN(c2cc(=O)n(C)c3ccc(C#N)nc23)CC[C@@H]1Oc1ccc(OC(C)C)cn1` (racemic) [Example 269, (±)-trans-8-(4-((5-isopropoxypyridin-2-yl)oxy)-3-methoxypiperidin-1-yl)-5-methyl-6-oxo-5,6-dihydro-1,5-naphthyridine-2-carbonitrile], the EC50 stood at 1.6 µM.

For `CO[C@H]1CN(c2cc(=O)n(C)c3ccc(C#N)nc23)CC[C@@H]1Oc1ccc(OC(C)C)cn1` (racemic) [Example 270, (±)-trans-8-(4-((5-isopropoxypyridin-2-yl)oxy)-3-methoxypiperidin-1-yl)-5-methyl-6-oxo-5,6-dihydro-1,5-naphthyridine-2-carbonitrile], the EC50 stood at 5.4 µM.

In the case of `CO[C@@H]1CN(c2nc(=O)n(C)c3ccc(C#N)nc23)CC[C@H]1Oc1cccc(C(F)(F)F)c1` (racemic) [Example 276], the EC50 amounted to 1 µM.

`CO[C@@H]1CN(c2nc(=O)n(C)c3ccc(C#N)nc23)CC[C@H]1Oc1cccc(C(F)(F)F)c1` (racemic) [Example 277]: the EC50 is 4.5 µM.

Staying with this test, now noted: human whole blood, anti-CD3 plus anti-CD28, 24 hours; read-out: INFg Whole Blood Normalized Agonist EC50.
Consider `C[C@@H]1CN(c2cc(=O)n(C)c3ccc(C#N)nc23)CC[C@H]1Oc1ccc(OC(F)(F)F)cc1` (single isomer, unassigned) [Example 81, 6-cyano-1-methyl-4-(trans-3-methyl-4-(4-(trifluoromethoxy)phenoxy)piperidin-1-yl)-1,5-naphthyridin-2(1H)-one (rel)], for which the EC50 stood at 2 µM.

As for `C[C@@H]1CN(c2cc(=O)n(C)c3ccc(C#N)nc23)CC[C@H]1Oc1ccc(C(F)(F)F)cc1` (single isomer, unassigned) [Example 98], the EC50 is 1.2 µM.

`C[C@@H]1CN(c2cc(=O)n(C)c3ccc(C#N)nc23)CC[C@H]1Oc1ccc(C(F)(F)F)cc1` (single isomer, unassigned) [Example 99]: the EC50 was 2.9 µM.

With `C[C@@H]1CN(c2cc(=O)n(C)c3ccc(C#N)nc23)CC[C@H]1Oc1ccc(F)c(F)c1` (single isomer, unassigned) [Example 105], the EC50 is 2 µM.
